Test results as given in patent US8709803B2, “Cell transport system comprising a homogeneous mixture of agarose and agarase” (Histocell, S.L., priority 2008, dated 2014).

What was measured:
SK-N-MC cells [1] = test: Proliferation assay with MTT on plates treated with laminin (FIG. 8a); assay type: cell-based, human; details: plate treated with laminin vs standard 24-well plate
Method: (§1) As a result, SK-N-MC cells were cultured in standard 24-well plates and in 24-well plates previously treated with laminin (Laminin 24-well Multiwell plates, BD) at a cell density of 300,000 cells per well and 1 ml of specific medium consisting of MEM medium supplemented with 2 mM L-glutamine, 1 mM sodium pyruvate, 0.1 mM non-essential amino acids, […] of gentamicin and 1% antibiotic at 37° C. and 5% CO2.
(§2) The day after seeding the SK-N-MC cells in the standard 24-well plates and in 24-well plates treated with laminin, transport conditions are simulated according to the specifications described in the previous example.
Once the time necessary for the cells to recover from transport has elapsed, the proliferation rate of both cultures is determined by means of measuring cell proliferation at times 24 and 48 h using the MTT test described in the previous example.

SK-N-MC cells [2] = test: Verification of morphology and cell density by microscopy on plates treated with laminin (FIG. 8b); assay type: cell-based, human; details: plates with laminin vs normal plate, same number of starting cells
Method: as §1, §2
In turn, the analysis of the cell morphology of the cultures of SK-N-MC in normal 24-well plates and 24-well plates treated with laminin shown in FIG. 8b proves that the number of cells in the culture in plates with laminin is greater than that of the culture in a normal plate despite the fact that the number of starting cells for both of them is the same, which reaffirms the results obtained from measuring the proliferation by means of MTT. The non-detection of the difference in the cell density by the proliferation assay by means of MTT can be due to the high cell confluence of both cultures.

Substance: laminin
- proliferation rate (MTT) (SK-N-MC cells [1]; after 24 hours in culture): an increase in the proliferation
- proliferation rate (MTT) (SK-N-MC cells [1]; after 48 hours in culture): equal
- number of cells in the culture (microscopy) (SK-N-MC cells [2]): greater
